In patent US11084814B2, “Pyrido[3, 4-d]pyrimidine derivative and pharmaceutically acceptable salt thereof” (Teijin Pharma Limited, priority 2016, dated 2021) one finds IC50 data, which are given here for 38 compounds.

The target of assay [1] is T1, CDK2/cyclin A2 (Homo sapiens, UniProt P24941).
T1 construct: purchased Carna Biosciences, Inc. QS S Assist CDK2/Cyclin A2_FP Kit
The assay can be described thus: Human CDK2/cyclin A2 inhibitory activity (QS S Assist CDK2/Cyclin A2_FP Kit, IMAP fluorescent polarization). In kind it is biochemical. The conditions noted are these: read-out: CDK2 Activity symbol. The method in brief:
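Kit CDK2/cyclin A2 (2.5 ng/well) was reacted with kit ATP/substrate/metal in 20 mM HEPES pH 7.4, 0.01% Tween 20 and 2 mM DTT for 60 min at room temperature. IMAP binding reagent was added for 30 min, then fluorescence polarization was read at 485/535 nm. IC50 came from dose-response fitting of percent inhibition.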

In assay [2] the target is T2, CDK4/cyclin D3 (Homo sapiens, UniProt P11802).
T2 construct: purchased Carna Biosciences, Inc. QS S Assist CDK4/Cyclin D3_FP Kit
Put plainly: Human CDK4/cyclin D3 inhibitory activity (QS S Assist CDK4/Cyclin D3_FP Kit, IMAP fluorescent polarization). In kind it is biochemical. The conditions noted are these: read-out: CDK4 Activity symbol. The method in brief: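 Kinase reactions used kit CDK4/cyclin D3 at 12.5–25 ng/well with the kit ATP/substrate/metal mix in 20 mM HEPES (pH 7.4), 0.01% Tween20 and 2 mM DTT, run 45 min at room temperature. Phosphorylation was detected by IMAP fluorescence polarization (ex 485/em 535 nm) after 30 min binding in the dark. IC50 was fitted from percent inhibition against DMSO controls with and without enzyme.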

SMILES strings stand for the structures. Some results are limits rather than exact numbers.

T2 sequence (P11802 whole entry): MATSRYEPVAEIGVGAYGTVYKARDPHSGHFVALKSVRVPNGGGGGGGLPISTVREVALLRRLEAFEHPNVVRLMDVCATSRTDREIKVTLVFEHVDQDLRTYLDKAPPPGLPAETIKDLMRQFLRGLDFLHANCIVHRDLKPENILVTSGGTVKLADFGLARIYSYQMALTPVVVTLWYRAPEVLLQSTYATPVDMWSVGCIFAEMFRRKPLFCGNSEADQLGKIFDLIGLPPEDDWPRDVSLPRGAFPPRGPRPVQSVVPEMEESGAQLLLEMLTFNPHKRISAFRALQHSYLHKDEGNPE
T2 sequence (P30281 whole entry partner): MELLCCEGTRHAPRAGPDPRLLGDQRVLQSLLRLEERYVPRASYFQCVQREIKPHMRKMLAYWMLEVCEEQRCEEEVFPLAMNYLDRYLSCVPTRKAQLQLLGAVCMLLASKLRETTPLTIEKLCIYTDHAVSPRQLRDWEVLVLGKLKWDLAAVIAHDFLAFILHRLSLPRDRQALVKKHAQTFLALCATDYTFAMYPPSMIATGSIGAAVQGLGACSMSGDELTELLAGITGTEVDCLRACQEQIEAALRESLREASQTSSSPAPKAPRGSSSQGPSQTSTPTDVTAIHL

As to `Cc1nc(Nc2ncc3cc([C@@H](C)O)nc(N4CCOC[C@@H]4C)c3n2)ccc1N1CCNCC1` [Compound 296], the IC50 in assay [1] was not below 100 nM; in assay [2], less than 10 nM.
For `Cc1nc(Nc2ncc3cc([C@@H](C)O)nc(N4CCOC[C@H]4C)c3n2)ccc1N1CCNCC1` [Compound 297] the same measures were not below 100 nM and less than 10 nM.
The matching figures for `Cc1nc(Nc2ncc3cc([C@@H](C)O)nc(N4C5CCC4COC5)c3n2)ccc1N1CCNCC1` [Compound 298]: not below 100 nM and less than 10 nM.
As for `C[C@@H](O)c1cc2cnc(Nc3ccc(N4CCNCC4=O)cn3)nc2c(N2CCOC[C@@H]2C)n1` [Compound 299], the results for the IC50 in assay [1] and in assay [2] were not below 100 nM and 10 to 100 nM, respectively.
`CC(O)c1cc2cnc(Nc3ccc(N4CCNCC4=O)cn3)nc2c(N2CCOCC2C)n1` (stereo not shown) [Compound 300]: the IC50 in assay [1] was not below 100 nM; in assay [2] it was 10 to 100 nM.
For `CC(O)c1cc2cnc(Nc3ccc(N4CCNCC4=O)cn3)nc2c(N2C3CCC2COC3)n1` (stereo not shown) [Compound 301], the IC50 was not below 100 nM in assay [1] and 10 to 100 nM in assay [2].
The matching figures for `CC(O)c1cc2cnc(Nc3ccc(N4CCNCC4=O)cn3)nc2c(N2CCCC2C)n1` (stereo not shown) [Compound 302]: 10 to 100 nM and less than 10 nM.
As to `CC(O)c1cc2cnc(Nc3ccc(N4CCNCC4=O)cn3)nc2c(N2CCCCC2C)n1` (stereo not shown) [Compound 303], the IC50 in assay [1] was not below 100 nM; in assay [2], less than 10 nM.
The matching figures for `C[C@@H](O)c1cc2cnc(Nc3ccc(C(=O)N4CCCN(C)CC4)cn3)nc2c(N2CCCCC2)n1` [Compound 304]: 10 to 100 nM and less than 10 nM.
As to `Cc1nc(Nc2ncc3cc([C@@H](C)O)nc(N4CCCCC4)c3n2)ccc1N1CCCNCC1=O` [Compound 305], the values for the IC50 in assay [1] and in assay [2] were 10 to 100 nM and less than 10 nM, respectively.
In the case of `Cc1nc(Nc2ncc3cc([C@@H](C)O)nc(N4CCCCCC4)c3n2)ccc1N1CCCNCC1=O` [Compound 306], the IC50 is 10 to 100 nM in assay [1] and less than 10 nM in assay [2].
The matching figures for `C[C@@H](O)c1cc2cnc(Nc3ccc(N4CCCNCC4=O)cn3)nc2c(N2CCCCCC2)n1` [Compound 307]: 10 to 100 nM and less than 10 nM.
The matching figures for `C[C@@H](O)c1cc2cnc(Nc3ccc(C(=O)N4CCN(CCO)CC4)cn3)nc2c(N2CCCCC2)n1` [Compound 308]: not below 100 nM and less than 10 nM.
As for `C[C@@H](O)c1cc2cnc(Nc3ccc(C(=O)N4CCN(C)CC4)cn3)nc2c(N2CCCCC2)n1` [Compound 309], the IC50 in assay [1] was not below 100 nM; in assay [2], less than 10 nM.
For `C[C@@H](O)c1cc2cnc(Nc3ccc(C(=O)N4CCOCC4)cn3)nc2c(N2CCCCC2)n1` [Compound 310], the IC50 in assay [1] was not below 100 nM; in assay [2], less than 10 nM.
As for `C[C@@H](O)c1cc2cnc(Nc3ccc(C(=O)N4CCC(O)CC4)cn3)nc2c(N2CCCCC2)n1` [Compound 311], the figures for the IC50 in assay [1] and in assay [2] were not below 100 nM and less than 10 nM, respectively.
`C[C@@H](O)c1cc2cnc(Nc3ccc(C(=O)N4CC[C@@H](N(C)C)C4)cn3)nc2c(N2CCCCC2)n1` [Compound 312]: the IC50 was not below 100 nM in assay [1] and less than 10 nM in assay [2].
Take `C[C@@H](O)c1cc2cnc(Nc3ccc(C(=O)N4CC[C@H](N(C)C)C4)cn3)nc2c(N2CCCCC2)n1` [Compound 313]: the IC50 is not below 100 nM in assay [1] and less than 10 nM in assay [2].
On to `C[C@@H](O)c1cc2cnc(Nc3ccc(C(=O)N4CCS(=O)(=O)CC4)cn3)nc2c(N2CCCCC2)n1` [Compound 314], for which the IC50 in assay [1] was not below 100 nM; in assay [2], less than 10 nM.
For `C[C@@H](O)c1cc2cnc(Nc3ccc(C(=O)N4CCC(N(C)C)CC4)cn3)nc2c(N2CCCCC2)n1` [Compound 315] the same measures were not below 100 nM and less than 10 nM.
The matching figures for `C[C@@H](O)c1cc2cnc(Nc3ccc(C(=O)N(C)CCN(C)C)cn3)nc2c(N2CCCCC2)n1` [Compound 316]: not below 100 nM and less than 10 nM.
Turning to `CCN1CCN(C(=O)c2ccc(Nc3ncc4cc([C@@H](C)O)nc(N5CCCCC5)c4n3)nc2)CC1` [Compound 317], the IC50 in assay [1] is not below 100 nM; in assay [2], less than 10 nM.
The matching figures for `C[C@@H](O)c1cc2cnc(Nc3ccc(C(=O)N4CCN(C)CC4)cn3)nc2c(N2CCCC2)n1` [Compound 318]: not below 100 nM and less than 10 nM.
For `C[C@@H](O)c1cc2cnc(Nc3ccc(C(=O)N4CCN(C)CC4)cn3)nc2c(N2CCCCCC2)n1` [Compound 319] the same measures were 10 to 100 nM and less than 10 nM.
Turning to `C[C@@H](O)c1cc2cnc(Nc3ccc(C(=O)N4CCN(C)CC4)cn3)nc2c(N2CCC(F)CC2)n1` [Compound 320], the results for the IC50 in assay [1] and in assay [2] were not below 100 nM and less than 10 nM, respectively.
`CC(O)c1cc2cnc(Nc3ccc(CN4CCN(C)CC4)cn3)nc2c(N2CC3CCC(C2)O3)n1` (stereo not shown) [Compound 321]: the IC50 in assay [1] is not below 100 nM; in assay [2] it was less than 10 nM.
As for `C[C@@H](O)c1cc2cnc(Nc3ccc(CN4CCN(C)CC4)cn3)nc2c(N2CCOCC2(C)C)n1` [Compound 322], the IC50 in assay [1] is not below 100 nM; in assay [2] it was less than 10 nM.
Turning to `O=C1CNCCCN1c1ccc(Nc2ncc3cc(C4COC4)nc(N4CCCCC4)c3n2)nc1` [Compound 323], the figures for the IC50 in assay [1] and in assay [2] were not below 100 nM and less than 10 nM, respectively.
With `C[C@@H](O)c1cc2cnc(Nc3ccc(N4CC5(C4)CN(C4COC4)C5)nn3)nc2c(N2CCCCC2)n1` [Compound 324], the values for the IC50 in assay [1] and in assay [2] were not below 100 nM and less than 10 nM, respectively.
With `C[C@@H](O)c1cc2cnc(Nc3ccc(CN4CCC5(CC4)COC5)cn3)nc2c(N2CCCCC2)n1` [Compound 325], the IC50 was not below 100 nM in assay [1] and less than 10 nM in assay [2].
Regarding `C[C@@H](O)c1cc2cnc(Nc3ccc(CN4CCC(C#N)CC4)cn3)nc2c(N2CCCCC2)n1` [Compound 326], the IC50 in assay [1] is not below 100 nM; in assay [2], less than 10 nM.
For the compound `Cc1nc(Nc2ncc3cc([C@@H](C)O)nc(N4CCCCC4)c3n2)ccc1N1CC2(C1)CN(C1COC1)C2` [Compound 327], the IC50 in assay [1] was not below 100 nM; in assay [2] it was less than 10 nM.
The matching figures for `Cc1nc(Nc2ncc3cc([C@@H](C)O)nc(N4CCCCC4)c3n2)ccc1N1CCN(C2CN(CCO)C2)CC1` [Compound 328]: not below 100 nM and less than 10 nM.
For the compound `CC(O)c1cc2cnc(Nc3ccc(N4CCCNCC4=O)cn3)nc2c(N2C3CCCC2CC3)n1` (stereo not shown) [Compound 329], the IC50 in assay [1] is 10 to 100 nM; in assay [2], less than 10 nM.
For `C[C@@H](O)c1cc2cnc(Nc3ccc4c(n3)CCN(C(=O)Cc3cccnc3)C4)nc2c(N2CCCCC2)n1` [Compound 330] the same measures were not below 100 nM and 10 to 100 nM.
As to `C[C@@H](O)c1cc2cnc(Nc3ccc4c(n3)CCN(C(=O)Cn3cccn3)C4)nc2c(N2CCCCC2)n1` [Compound 331], the IC50 in assay [1] is not below 100 nM; in assay [2] it was 10 to 100 nM.
The matching figures for `C[C@@H](O)c1cc2cnc(Nc3ccc4c(n3)CCN(C(=O)Cn3cncn3)C4)nc2c(N2CCCCC2)n1` [Compound 332]: not below 100 nM and 10 to 100 nM.
`C[C@@H](O)c1cc2cnc(Nc3ccc4c(n3)CCN(C(=O)Cn3cnnc3)C4)nc2c(N2CCCCC2)n1` [Compound 333]: the IC50 is not below 100 nM in assay [1] and less than 10 nM in assay [2].
